Assay results: patent publication US20260250257A1, “ANTIBACTERIAL AND SYNERGISTIC ACTIVE COMPOUND AND USE THEREOF” (EAST CHINA UNIVERSITY OF SCIENCE AND TECHNOLOGY, priority 2023, published 2026)
In brackets after ≈: the same amount, converted by molar mass.

Experiments:
Assay type in all cases: cell-based
[1] = system: ATCC19606 strain (Acinetobacter baumannii); experiment: Broth microdilution, antibacterial activity of the compound used alone; conditions: for MIC: read-out: Antibacterial activity of the compound of Formula I, ATCC19606
Description: (§1) The broth microdilution method was used to test the antibacterial effects of the compounds of the present invention against various Gram-negative bacterial strains when used alone.

[2] = system: ATCC9027 strain (Pseudomonas aeruginosa); experiment: as above; conditions: for MIC: read-out: Antibacterial activity of the compound of Formula I, ATCC9027
Description: as §1

[3] = system: ATCC13883 strain (Klebsiella pneumoniae); experiment: as above; conditions: for MIC: read-out: Antibacterial activity of the compound of Formula I, ATCC13883
Description: as §1

[4] = system: ATCC25922 strain (Escherichia coli); experiment: as above; conditions: for MIC: read-out: Antibacterial activity of the compound of Formula I, ATCC25922
Description: as §1

[5] = system: ATCC19606 strain (Acinetobacter baumannii); experiment: Checkerboard antibacterial synergistic activity test with polymyxin E (FIC); design: key: FIC≤0.5 synergy; 0.5–1 additive; 1–2 indifferent; ≥2 antagonism; conditions: combined with polymyxin E
Method: (§2) Polymyxin E was diluted in sterile MH broth medium to concentrations of 16, 8, 4, 2, 1, 0.5, 0.25, 0.125, 0.0625, 0.031, and 0.015 μg/ml, and the drug to be tested was diluted to concentrations of 256, 128, 64, 32, 16, 8, and 4 μg/ml. According to the checkerboard method, combinations of the drug to be tested and polymyxin at different concentrations in ascending order were placed into a 96-well plate, and corresponding blank control groups were set up. 50 μl of the drug solution was added to each well, then 100 μl of bacterial liquid was added, and incubated in a 37° C. incubator for 16 hours. […] Calculation and judgment criteria:
(§3) Fractional Inhibitory Concentration (FIC) is calculated as follows: […]
(§4) Judgment criteria: FIC≤0.5: synergistic effect; 0.5<FIC<1: additive effect; 1<FIC<2: indifferent effect; FIC≥2: antagonistic effect.
(§5) In the table: ATCC19606 strain is Acinetobacter baumannii, ATCC25922 strain is Escherichia coli, ATCC13883 strain is Klebsiella pneumoniae, ATCC9027 strain is Pseudomonas aeruginosa. All four strains were purchased from ATCC.

[6] = system: ATCC9027 strain (Pseudomonas aeruginosa); experiment: as above; design: key: FIC≤0.5 synergy; 0.5–1 additive; 1–2 indifferent; ≥2 antagonism; conditions: combined with polymyxin E
Method: as §2, §3, §4, §5

[7] = system: ATCC13883 strain (Klebsiella pneumoniae); experiment: as above; design: key: FIC≤0.5 synergy; 0.5–1 additive; 1–2 indifferent; ≥2 antagonism; conditions: combined with polymyxin E
Method: as §2, §3, §4, §5

[8] = system: ATCC25922 strain (Escherichia coli); experiment: as above; design: key: FIC≤0.5 synergy; 0.5–1 additive; 1–2 indifferent; ≥2 antagonism; conditions: combined with polymyxin E
Method: as §2, §3, §4, §5

Compound	MIC [1] [µg/mL]	MIC [2] [µg/mL]	MIC [3] [µg/mL]	MIC [4] [µg/mL]	Synergistic activity (FIC value) ATCC19606 [5]	Synergistic activity (FIC value) ATCC9027 [6]	Synergistic activity (FIC value) ATCC13883 [7]	Synergistic activity (FIC value) ATCC25922 [8]	Antibacterial activity of the compound of Formula I, ATCC19606 [1] [µg/mL]	Antibacterial activity of the compound of Formula I, ATCC9027 [2] [µg/mL]	Antibacterial activity of the compound of Formula I, ATCC13883 [3] [µg/mL]	Antibacterial activity of the compound of Formula I, ATCC25922 [4] [µg/mL]
NC(N)=Nc1nc(-c2ccccc2Oc2ccccc2)cs1 [Compound I-1, 2-(4-(2-phenoxyphenyl)thiazol-2-yl)guanidine]	256 (≈ 825 µM)	256 (≈ 825 µM)	256 (≈ 825 µM)	256 (≈ 825 µM)	1.25	0.52	0.53	1.25				
NC(N)=Nc1nc(-c2cccc(Oc3ccccc3)c2)cs1 [Compound I-2]	256 (≈ 825 µM)	256 (≈ 825 µM)	256 (≈ 825 µM)	256 (≈ 825 µM)	0.26	0.53	0.75	0.51				
NC(N)=Nc1nc(-c2ccc(Oc3ccccc3)cc2)cs1 [Compound I-3]					1.25	1.25	1.25	0.5	256	256	256	256
COc1ccccc1-c1csc(N=C(N)N)n1 [Compound I-4]					1.25	1.25	1.25	0.5	256	256	256	256
COc1cccc(-c2csc(N=C(N)N)n2)c1 [Compound I-5]					1.25	1.25	1.25	1.25	256	256	256	256
COc1ccc(-c2csc(N=C(N)N)n2)cc1 [Compound I-6]					0.75	1.25	1.25	0.5	256	256	256	256
NC(N)=Nc1nc(-c2ccccc2OCc2ccccc2)cs1 [Compound I-7]					0.16	0.75	0.51	0.51	256	256	256	256
NC(N)=Nc1nc(-c2cccc(OCc3ccccc3)c2)cs1 [Compound I-8]	256 (≈ 789 µM)	128 (≈ 395 µM)	256 (≈ 789 µM)	256 (≈ 789 µM)	0.25	0.53	0.53	1.25				
NC(N)=Nc1nc(-c2ccc(OCc3ccccc3)cc2)cs1 [Compound I-9]					0.13	0.31	0.16	0.26	256	256	256	256
